# How the values were obtained:
# human V1a receptor = target: T1, human V1a receptor (Homo sapiens, UniProt P37288); assay: Cellular in vitro assay for determining vasopressin receptor activity, V1a receptor cell line (CHO, aequorin luminescence); type: cell-based; conditions: for IC50: CHO cell line transfected with human V1a receptor, [Arg]-vasopressin at EC50 concentration, read-out: IC50 hV1a; for ratio IC50 hV2/hV1a: selectivity ratio IC50 hV2 / IC50 hV1a
# T1 construct: expressed in transfected cells; host or cells: CHO K1 (ATCC), also stably transfected with a modified aequorin
# Outline: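 IC50 from inhibition of [Arg]-vasopressin (EC50 concentration)-evoked aequorin luminescence in CHO K1 cells, with 10-min compound pretreatment.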
# human V2 receptor = target: T2, human V2 receptor (Homo sapiens, UniProt P30518); assay: Cellular in vitro assay for determining vasopressin receptor activity, V2 receptor cell line (CHO, CRE-luciferase); type: cell-based; conditions: CHO cell line transfected with human V2 receptor; [Arg8]-vasopressin at EC50 concentration, 3 hours; read-out: IC50 hV2
# T2 construct: expressed in transfected cells; host or cells: CHO K1 (ATCC) expressing firefly luciferase under a CRE-responsive promoter
# T2 sequence (P30518 whole entry): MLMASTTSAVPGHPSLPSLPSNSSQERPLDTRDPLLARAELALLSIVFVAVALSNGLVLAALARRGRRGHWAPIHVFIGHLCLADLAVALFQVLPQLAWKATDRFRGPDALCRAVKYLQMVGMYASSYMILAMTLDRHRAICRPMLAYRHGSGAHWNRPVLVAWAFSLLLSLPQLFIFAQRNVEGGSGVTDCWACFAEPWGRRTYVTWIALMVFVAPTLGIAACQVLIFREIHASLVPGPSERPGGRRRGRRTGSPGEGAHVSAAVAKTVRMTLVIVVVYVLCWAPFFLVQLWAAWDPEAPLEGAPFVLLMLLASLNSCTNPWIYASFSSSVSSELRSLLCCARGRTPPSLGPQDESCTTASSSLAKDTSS
# T1 sequence (P37288 whole entry): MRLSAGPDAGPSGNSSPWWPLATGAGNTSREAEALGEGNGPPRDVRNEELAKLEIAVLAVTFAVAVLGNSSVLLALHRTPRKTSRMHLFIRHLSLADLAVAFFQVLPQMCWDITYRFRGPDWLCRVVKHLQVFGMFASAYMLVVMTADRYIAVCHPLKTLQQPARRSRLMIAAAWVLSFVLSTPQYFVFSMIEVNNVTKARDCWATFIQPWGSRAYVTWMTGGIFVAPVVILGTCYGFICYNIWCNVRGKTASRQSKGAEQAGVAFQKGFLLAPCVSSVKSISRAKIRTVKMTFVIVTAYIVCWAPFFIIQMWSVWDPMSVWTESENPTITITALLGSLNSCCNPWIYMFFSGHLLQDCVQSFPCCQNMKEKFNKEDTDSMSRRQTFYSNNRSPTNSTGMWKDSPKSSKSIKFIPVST
IC50 (human V1a receptor) [nM],ratio IC50 hV2/hV1a (human V1a receptor),IC50 (human V2 receptor) [nM],Structure (SMILES)
9,199.4,1800,"O=C(NCCN1CCNC1=O)c1ccccc1-n1cnc(Cn2nc(-c3ccc(Cl)cc3)n(C[C@H](O)C(F)(F)F)c2=O)n1 [Example 185, 2-[3-({3-(4-Chlorophenyl)-5-oxo-4-[(2S)-3,3,3-trifluoro-2-hydroxypropyl]-4,5-dihydro-1H-1,2,4-triazol-1-yl}methyl)-1H-1,2,4-triazol-1-yl]-N-[2-(2-oxoimidazolidin-1-yl)ethyl]benzamide]"
5.25,46.2,243,"CC(C)(N)CNC(=O)c1cc(Cl)ccc1-n1cnc(Cn2nc(-c3ccc(Cl)cc3)n(C[C@H](O)C(F)(F)F)c2=O)n1 [Example 186, N-(2-Amino-2-methylpropyl)-5-chloro-2-[3-({3-(4-chlorophenyl)-5-oxo-4-[(2S)-3,3,3-trifluoro-2-hydroxypropyl]-4,5-dihydro-1H-1,2,4-triazol-1-yl}methyl)-1H-1,2,4-triazol-1-yl]benzamide]"
12.3,3.9,48.5,"CNC(=O)c1cc(Cl)ccc1-n1cnc(Cn2nc(-c3ccc(Cl)cc3)n(C[C@H](O)C(F)(F)F)c2=O)n1 [Example 187, 5-chloro-2-[3-({3-(4-Chlorophenyl)-5-oxo-4-[(2S)-3,3,3-trifluoro-2-hydroxypropyl]-4,5-dihydro-1H-1,2,4-triazol-1-yl}methyl)-1H-1,2,4-triazol-1-yl]-N-methylbenzamide]"
6.83,83.2,568,"CC1(CNC(=O)c2ccccc2-n2cnc(Cn3nc(-c4ccc(Cl)cc4)n(C[C@H](O)C(F)(F)F)c3=O)n2)COC1 [Example 188, 2-[3-({3-(4-Chlorophenyl)-5-oxo-4-[(2S)-3,3,3-trifluoro-2-hydroxypropyl]-4,5-dihydro-1H-1,2,4-triazol-1-yl}ylmethyl)-1H-1,2,4-triazol-1-yl]-N-[(3-methyloxetan-3-yl)methyl]benzamide]"
60.8,60.1,3650,"NC(=O)C1CN(C(=O)c2ccccc2-n2cnc(Cn3nc(-c4ccc(Cl)cc4)n(C[C@H](O)C(F)(F)F)c3=O)n2)C1 [Example 189, 1-{2-[3-({3-(4-Chlorophenyl)-5-oxo-4-[(2S)-3,3,3-trifluoro-2-hydroxypropyl]-4,5-dihydro-1H-1,2,4-triazol-1-yl}methyl)-1H-1,2,4-triazol-1-yl]benzoyl}azetidine-3-carboxamide]"
300,23.5,7050,"O=C1NCC2(CN(C(=O)c3ccccc3-n3cnc(Cn4nc(-c5ccc(Cl)cc5)n(C[C@H](O)C(F)(F)F)c4=O)n3)C2)N1 [Example 190, 2-{2-[3-({3-(4-Chlorophenyl)-5-oxo-4-[(2S)-3,3,3-trifluoro-2-hydroxypropyl]-4,5-dihydro-1H-1,2,4-triazol-1-yl}methyl)-1H-1,2,4-triazol-1-yl]benzoyl}-2,5,7-triazaspiro[3.4]octan-6-one]"
63.5,46.5,2950,"NC(=O)[C@H]1CCCN1C(=O)c1ccccc1-n1cnc(Cn2nc(-c3ccc(Cl)cc3)n(C[C@H](O)C(F)(F)F)c2=O)n1 [Example 194, 1-{2-[3-({3-(4-Chlorophenyl)-5-oxo-4-[(2S)-3,3,3-trifluoro-2-hydroxypropyl]-4,5-dihydro-1H-1,2,4-triazol-1-yl}methyl)-1H-1,2,4-triazol-1-yl]benzoyl}-D-prolinamide]"
104,23.0,2390,"NC(=O)[C@@H]1CCCN1C(=O)c1ccccc1-n1cnc(Cn2nc(-c3ccc(Cl)cc3)n(C[C@H](O)C(F)(F)F)c2=O)n1 [Example 195, 1-{2-[3-({3-(4-Chlorophenyl)-5-oxo-4-[(2S)-3,3,3-trifluoro-2-hydroxypropyl]-4,5-dihydro-1H-1,2,4-triazol-1-yl}methyl)-1H-1,2,4-triazol-1-yl]benzoyl}-L-prolinamide]"
49.5,140.4,6950,"NC(=O)[C@@H]1CC(F)(F)CN1C(=O)c1ccccc1-n1cnc(Cn2nc(-c3ccc(Cl)cc3)n(C[C@H](O)C(F)(F)F)c2=O)n1 [Example 197, 1-{2-[3-({3-(4-Chlorophenyl)-5-oxo-4-[(2S)-3,3,3-trifluoro-2-hydroxypropyl]-4,5-dihydro-1H-1,2,4-triazol-1-yl}methyl)-1H-1,2,4-triazol-1-yl]benzoyl}-4,4-difluoro-L-prolinamide]"
22,245.5,5400,"NC(=O)[C@H]1CC(F)(F)CN1C(=O)c1ccccc1-n1cnc(Cn2nc(-c3ccc(Cl)cc3)n(C[C@H](O)C(F)(F)F)c2=O)n1 [Example 198, 1-{2-[3-({3-(4-Chlorophenyl)-5-oxo-4-[(2S)-3,3,3-trifluoro-2-hydroxypropyl]-4,5-dihydro-1H-1,2,4-triazol-1-yl}methyl)-1H-1,2,4-triazol-1-yl]benzoyl}-4,4-difluoro-D-prolinamide]"
36.5,66.4,2420,"NC(=O)[C@@H]1CCN(C(=O)c2ccccc2-n2cnc(Cn3nc(-c4ccc(Cl)cc4)n(C[C@H](O)C(F)(F)F)c3=O)n2)C1 [Example 199, (3R)-1-{2-[3-({3-(4-Chlorophenyl)-5-oxo-4-[(2S)-3,3,3-trifluoro-2-hydroxypropyl]-4,5-dihydro-1H-1,2,4-triazol-1-yl}methyl)-1H-1,2,4-triazol-1-yl]benzoyl}pyrrolidine-3-carboxamide]"
11.2,153.3,1730,"NC(=O)[C@H]1CCN(C(=O)c2ccccc2-n2cnc(Cn3nc(-c4ccc(Cl)cc4)n(C[C@H](O)C(F)(F)F)c3=O)n2)C1 [Example 200, (3S)-1-{2-[3-({3-(4-Chlorophenyl)-5-oxo-4-[(2S)-3,3,3-trifluoro-2-hydroxypropyl]-4,5-dihydro-1H-1,2,4-triazol-1-yl}methyl)-1H-1,2,4-triazol-1-yl]benzoyl}pyrrolidine-3-carboxamide]"
1.2,3125.0,3750,"CC1=NN=C(C)C1NC(=O)c1ccccc1-n1cnc(Cn2nc(-c3ccc(Cl)cc3)n(C[C@H](O)C(F)(F)F)c2=O)n1 [Example 201, 2-[3-({3-(4-Chlorophenyl)-5-oxo-4-[(2S)-3,3,3-trifluoro-2-hydroxypropyl]-4,5-dihydro-1H-1,2,4-triazol-1-yl}methyl)-1H-1,2,4-triazol-1-yl]-N-(3,5-dimethyl-4H-pyrazol-4-yl)benzamide]"
8.35,26.9,225,"O=C(NCc1cccc(F)c1F)c1ccccc1-n1cnc(Cn2nc(-c3ccc(Cl)cc3)n(C[C@H](O)C(F)(F)F)c2=O)n1 [Example 203, 2-[3-({3-(4-Chlorophenyl)-5-oxo-4-[(2S)-3,3,3-trifluoro-2-hydroxypropyl]-4,5-dihydro-1H-1,2,4-triazol-1-yl}methyl)-1H-1,2,4-triazol-1-yl]-N-(2,3-difluorobenzyl)benzamide]"
0.58,321.7,185,"Nc1ccc(NC(=O)c2ccccc2-n2cnc(Cn3nc(-c4ccc(Cl)cc4)n(C[C@H](O)C(F)(F)F)c3=O)n2)cc1 [Example 205, N-(4-Aminophenyl)-2-[3-({3-(4-chlorophenyl)-5-oxo-4-[(2S)-3,3,3-trifluoro-2-hydroxypropyl]-4,5-dihydro-1H-1,2,4-triazol-1-yl}methyl)-1H-1,2,4-triazol-1-yl]benzamide]"
1.45,575.9,835,"Cn1nccc1CNC(=O)c1ccccc1-n1cnc(Cn2nc(-c3ccc(Cl)cc3)n(C[C@H](O)C(F)(F)F)c2=O)n1 [Example 206, 2-[3-({3-(4-Chlorophenyl)-5-oxo-4-[(2S)-3,3,3-trifluoro-2-hydroxypropyl]-4,5-dihydro-1H-1,2,4-triazol-1-yl}methyl)-1H-1,2,4-triazol-1-yl]-N-[(1-methyl-1H-pyrazol-5-yl)methyl]benzamide]"
5.35,57.0,305,"O=C(NCc1cc(F)ccc1F)c1ccccc1-n1cnc(Cn2nc(-c3ccc(Cl)cc3)n(C[C@H](O)C(F)(F)F)c2=O)n1 [Example 207, 2-[3-({3-(4-chlorophenyl)-5-oxo-4-[(2S)-3,3,3-trifluoro-2-hydroxypropyl]-4,5-dihydro-1H-1,2,4-triazol-1-yl}methyl)-1H-1,2,4-triazol-1-yl]-N-(2,5-difluorobenzyl)benzamide]"
5.65,23.0,130,"Cc1ccc(CNC(=O)c2ccccc2-n2cnc(Cn3nc(-c4ccc(Cl)cc4)n(C[C@H](O)C(F)(F)F)c3=O)n2)o1 [Example 209, 2-[3-({3-(4-Chlorophenyl)-5-oxo-4-[(2S)-3,3,3-trifluoro-2-hydroxypropyl]-4,5-dihydro-1H-1,2,4-triazol-1-yl}methyl)-1H-1,2,4-triazol-1-yl]-N-[(5-methylfuran-2-yl)methyl]benzamide]"
1.65,457.6,755,"Cn1nccc1NC(=O)c1ccccc1-n1cnc(Cn2nc(-c3ccc(Cl)cc3)n(C[C@H](O)C(F)(F)F)c2=O)n1 [Example 210, 2-[3-({3-(4-Chlorophenyl)-5-oxo-4-[(2S)-3,3,3-trifluoro-2-hydroxypropyl]-4,5-dihydro-1H-1,2,4-triazol-1-yl}methyl)-1H-1,2,4-triazol-1-yl]-N-(1-methyl-1H-pyrazol-5-yl)benzamide]"
